Laboratory results as given in article PMC12828543, “Preclinical drug screen identifies WEE1 inhibitor and vinca alkaloid as a combination treatment concept for Li-Fraumeni syndrome medulloblastoma” (iScience, 2025).
Where two headings read alike, the source gives them in different places.

Legend:
SJ-GBM2 [1] = assay: Validation in established cell lines (0.1-10,000 nM, triplicates, 72 h, CellTiter-Glo 2.0); format: cell-based, human; conditions: for IC50: SJ-GBM2, metabolic activity; for Emax: validation, maximum effect, 0.1-10,000 nM, 72 h
Description: (§1) Following 72-hour exposure cell viability was measured using CellTiter-Glo 2.0 Assay (cat.no. G9241, Promega) and the Spark microplate reader (Tecan).
(§2) DSS3 (single drug screen and validation steps) and Emax (validation step only) were estimated based on four-parameter logistic curves.

UW228-2 [2] = assay: as above; format: cell-based, human; conditions: for Emax: UW228-2, validation, maximum effect, 0.1-10,000 nM, 72 h; for IC50: UW228-2, metabolic activity
Description: as §1, §2

SJGBM-2 and UW228-2 = assay: Validation in established cell lines, Emax criterion in both cancer cell lines; format: cell-based; conditions: Homo sapiens; SJGBM-2 and UW228-2, selection criterion; read-out: maximum effect (Emax) in cancer cell lines
Source text: as §2

LFS fibroblasts [3] = assay: Genotoxicity screen, Micronucleus Test (MNT); format: cell-based, human; design: key: MNT score = number of micronuclei / number of nuclei; conditions: Cmax concentration (or concentration causing 20% decrease of viability), 120 h, median
Description: To evaluate genotoxicity of compounds, the Micronucleus Test (MNT)[96]^,[97] method was used. […] Next, the cells were visualized using ImageXpress Micro 4 High-Content Imaging System (Molecular Devices, LLC) and 4 images for each well were analyzed with CellProfiler version 4.1.3 (the pipeline described in the supplementary information).
The MNT score for a specific compound was calculated according to a following formula: MNTscore=(numberofmicronuclei/numberofnuclei)
Resulting MNT scores were compared to negative (DMSO) and positive (mitomycin C) control scores using Welch t-test (R version 4.2.2, packages stat, ggplot2). If scores were statistically different from positive control, then the compound was classified as non-genotoxic. If scores were statistically different from negative control, then the compound was classified as genotoxic.

[4] = tested on: TP53mut SHH-MB patient-derived organoid B062-008; assay: Drug treatment assay in PDOs (72 h, CellTiter-Glo 3D); format: cell-based, human; conditions: PDO B062-008, single drug; for IC50: Homo sapiens
Description: (§3) Cells were treated with DMSO as negative control and with Staurosporine (10 μM) (BIO-CONNECT BV, cat.no. 62996-74-1) as positive control. Metabolic activity was measured 72h after drug treatment by adding 40 μL of CellTiter-Glo 3D cell viability assay (Promega, cat.no. G9683) to each well, shake for 5 minutes using the Multidrop Combi system dispenser and incubated at room temperature and in the dark for an additional 25 minutes. Thereafter, bioluminescence was measured using the CLARIOstarplus (BMG Labtech) plate reader. Results were normalized to DMSO negative controls (100% viability) and Staurosporine positive controls (0% viability).
(§4) In analysis of the results from PDO lines Synergy finder+ was used and growth curves were generated using R version 4.2.2 (package drc). Presented synergy scores are averages across 3 biological replicates (each with two technical replicates, from which a mean value was calculated).

[5] = tested on: TP53mut SHH-MB patient-derived organoid B062-13315; assay: as above; format: cell-based, human; conditions: PDO B062-13315, single drug; for IC50: Homo sapiens
Description: as §3, §4

[6] = tested on: TP53mut SHH-MB patient-derived organoid MED113FH; assay: as above; format: cell-based, human; conditions: PDO MED113FH, single drug; for IC50: Homo sapiens
Description: as §3, §4

[7] = tested on: TP53mut SHH-MB patient-derived organoids (PDOs); assay: Drug treatment assay in PDOs, summary over all three PDO models; format: cell-based; conditions: Homo sapiens
Description: as §3, §4

[8] = tested on: CDK1 phosphorylation (phospho Y15) in SJ-GBM2 and UW228-2; assay: Adavosertib pharmacodynamic marker (Western blot) in cell lines; format: cell-based, human; conditions: adavosertib 100 nM, 300 nM for 8 and 24 hours
Source text: Protein concentration of cell lysates were estimated using the Pierce BCA Protein Assay Kit (cat. no. 23225, ThermoFisher Scientific). For detecting CDK1 phosphorylation the following antibodies were used: α-CDK1 (phospho Y15) [BLR101H] (cat.no. ab275958, Abcam), α-Cdk1/Cdk2 (AN21.2) (cat.no. sc-53219, Santa Cruz Biotechnology, Inc.), α-HSP90 (cat.no. 4877, Cell Signaling Technology). Western blot bands were visualized using Amersham ECL Prime Western Blotting Detection System (cat. no. RPN2232SK, GE Healthcare) and quantified using ImageJ (version 1.50b, Wayne Rasband and co., NIH). Post analysis brightness and contrast of presented images was increased by 50%.

[9] = tested on: DKFZ-BT084 PDX (LFS-associated SHH-MB), orthotopic in NSG mice; assay: In vivo drug testing in LFS SHH-MB PDX model; design: species or system mouse; conditions: adavosertib 60 mg/kg p.o. 5 times/week, vincristine 0.5 mg/kg i.p. once weekly, 4 weeks
Description: Animal experiment permits (G-193/21 and G-135/23) were issued by the Regional Council in Karlsruhe. In in vivo drug treatment and in vivo target dependence experiments female NOD.Cg-Prkdc^scidIl2rg^tm1Wjl/SzJ (NSG) mice were used. Intracranial patient-derived xenograft (PDX) tumor cell injections were performed in 6-8-week old animals. Following LFS-associated SHH-MB PDX models were injected: DKFZ-BT084[86] (relapsed tumor), LFS_primary[78] (gift from Prof. Aurélie Ernst, treatment-naive) and HS231222 (newly-established model, treatment-naive). After tumor detection mice were randomly assigned into 4 treatment groups (4-5 animals/group) without blinding.
LFS_primary[78] (gift from Aurélie Ernst) and HS231222. […] The control group received treatment with solvents only.

[10] = tested on: Trp53+/- LFS mouse model (Trp53tm1Tyj/J); conditions: for Survival: Trp53+/- mice, 4-week treatment and 4-week observation period
Description: At the age of 6-8-weeks mice were randomly assigned into 4 treatment groups (3-4 animals/group) without blinding.
4-week treatment period was followed by 4-week observation period to monitor for drug toxicity-related symptoms. Afterwards the animals were sacrificed and organs (brain, liver, spleen and kidney) were extracted. Tissues were fixed for 48 hours in Roti®-Histofix 4 % (cat.no. P087.5, Roth) followed by dehydration in 50% Ethanol. […] For γH2AX (p-S139) staining 4 μm FFPE tissue sections were cut, deparaffinized and re-hydrated. […] Antibody- and H&E-stained specimens were evaluated by the pathologist (T.G.P.G.). Images were taken with the Leica DM3000 LED microscope (10-fold magnification) and analyzed using Fiji v.2.16.0 (Java 8) and R version 4.2.2 (packages ggplot2 and ggsignif).
At the stage of designing experiments, a power analysis was performed for BT084 and LFS_primary models using R version 4.1.0 (type I error: 5%, type II error: 20%). Survival, IVIS readout and weight was analyzed using R version 4.2.2 (packages stat, ggplot2, ggsignif, survival, survminer and stats). Images were analyzed using Fiji v.2.16.0 (Java 8) and R version 4.2.2 (packages ggplot2 and ggsignif).

LFS fibroblasts [11] = assay: Validation in established cell lines (0.1-10,000 nM, triplicates, 72 h, CellTiter-Glo 2.0); format: cell-based; conditions: non-cancerous cells
Description: as §1, §2

[12] = design: method as in PMID 35507041; conditions: mice; cited from earlier work
[13] = tested on: TP53mut cancer cell lines SJ-GBM2 and UW228-2; assay: Drug combination screen (synergy scores, SynergyFinder+); format: cell-based, human; conditions: TP53mut brain cancer cell lines
Description: Drugs were tested in combinations in vitro using TP53^mut cancer cell lines SJ-GBM2 and UW228-2. […] Cell metabolic activity was measured in the same way as in the single drug screen (3 technical replicates x min. 3 biological replicates for each condition).
as §4

orthotopic GBM model = conditions: cited from earlier work
SJ-GBM2 [14] = assay: WEE1 siRNA knockdown and vincristine, cell viability after 72 hours; format: cell-based; conditions: Homo sapiens; SJ-GBM2, 72 hours, vincristine 0.5 nM, compared to control siRNA
Description: (§5) SJ-GBM2 and UW228-2 cells were transfected with ON-TARGETplus Human WEE1 siRNA (SMARTPool, cat.no. L-005050-00, Dharmacon Reagents) using Lipofectamine RNAiMAX Transfection Reagent (cat. no. 13778075, Invitrogen). WEE1 knockdown at protein level was confirmed by Western blot (α-WEE1 antibody [B-11], cat.no. sc-5285, Santa Cruz Biotechnology). After 72 hours cell viability was measured as described in Single drug screening method section. Caspase assay was performed 48 hours after treatment according to manufacturer instructions (cat.no. ab39383, Abcam).
(§6) Western blot bands were quantified using ImageJ (version 1.50b, Wayne Rasband and co., NIH). The readouts from 3 biological replicates were analyzed using R version 4.2.2 (packages ggplot2, DSS, stats) and presented as mean values with standard deviations.

UW228-2 [15] = assay: as above; format: cell-based; conditions: Homo sapiens; UW228-2, 72 hours, vincristine 0.5 nM, compared to control siRNA
Description: as §5, §6

[16] = tested on: caspase-3 activity in SJ-GBM2 and UW228-2; assay: Caspase-3 assay (fluorometric) 48 hours after treatment; format: cell-based, human; conditions: SJ-GBM2 and UW228-2, 48 hours
Description: as §5

[17] = Cmax from literature; ref PMID: 32635465; cited from earlier work
[18] = mean over three PDOs, metabolic activity, read-out: mean IC50
[19] = range over three PDOs, read-out: IC50 range

Structure (SMILES)	IC50 (SJ-GBM2 [1]; Homo sapiens) [nM]	Emax (SJ-GBM2 [1]; Homo sapiens) [%]	Emax (UW228-2 [2]; Homo sapiens) [%]	IC50 (UW228-2 [2]; Homo sapiens) [nM]	Emax (SJGBM-2 and UW228-2) [%]	MNT_median (micronucleus test score) (LFS fibroblasts [3])	IC50 [4] [nM]	DSS [4]	IC50 [5] [nM]	DSS [5]	IC50 [6] [nM]	DSS [6]	IC50 [7, 18] [nM]	IC50 [7, 19] [nM]	Median lifespan since tumor detection [9] [days]	Survival [10] [%]	IC50 (SJ-GBM2 [1]) [nM]	IC50 (UW228-2 [2]) [nM]	interaction in combination with vinca alkaloid (synergy score) [13]	other results
C=CCn1c(=O)c2cnc(Nc3ccc(N4CCN(C)CC4)cc3)nc2n1-c1cccc(C(C)(C)O)n1 [Adavosertib]	43.4	98.1	89.1	273	> 50	1,44	215	8,36	117	17,70	167	9,53	166	117 to 215	9	100	–	–	–	levels of CDK1 phosphorylation [8]: reduced levels of CDK1 phosphorylation
C[C@@H]1COCCN1c1cc(-c2ccnn2C)c2ccnc(-c3ccn[nH]3)c2n1 [BAY-1895344]	–	–	–	–	–	–	–	–	–	–	–	–	–	–	–	–	–	–	–	LFS fibroblast DSS3 (LFS fibroblasts [11]): 0; intra-tumoral drug concentration [12]: 495 nM
Cc1cc(Nc2ncc3c(n2)N(C)CN(c2c(Cl)cccc2Cl)C3=O)ccc1C1CCN(C)CC1 [Debio 0123]	–	–	–	–	–	–	–	–	–	–	–	–	–	–	–	–	147	270	additive interaction	BBB penetration (orthotopic GBM model): ability to cross BBB
CC[C@]1(O)C[C@H]2CN(CCc3c([nH]c4ccccc34)[C@@](C(=O)OC)(c3cc4c(cc3OC)N(C=O)[C@H]3[C@@](O)(C(=O)OC)[C@H](OC(C)=O)[C@]5(CC)C=CCN6CC[C@]43[C@@H]65)C2)C1 [Vincristine]	1.1	92.5	52.2	0.9	> 50	2,59	7.24	22,69	1.38	54,34	11.9	16,96	6.8	1.38 to 11.9	20.5	100	–	–	–	viability at 0.0005 µM (SJ-GBM2 [14]): 62.9%; viability at 0.0005 µM (UW228-2 [15]): 80.2%; caspase-3 activity [16]: did not influence caspase-3 activity; genotoxicity or organ-specific toxicities ([10]; mouse, in vivo): low to no genotoxicity or organ-specific toxicities; Cmax [17]: 36 nM
C=CCn1c(=O)c2cnc(Nc3ccc(N4CCN(C)CC4)cc3)nc2n1-c1ccc2c(n1)[C@@](O)(CC)CC2 [ZN-c3]	–	–	–	–	–	–	–	–	–	–	–	–	–	–	–	–	69.7	271	additive interaction	–
